Laboratory results as given in article PMC2810717 (Biochemistry, 2010).

Assays:
spermine oxidase (SMO) [1] = target: T1, spermine oxidase (SMO) (Homo sapiens, UniProt Q9NWM0); assay type: biochemical
spermine oxidase (SMO) [2] = target: T1, spermine oxidase (SMO); assay: biochemical

T1 sequence (Q9NWM0 whole entry): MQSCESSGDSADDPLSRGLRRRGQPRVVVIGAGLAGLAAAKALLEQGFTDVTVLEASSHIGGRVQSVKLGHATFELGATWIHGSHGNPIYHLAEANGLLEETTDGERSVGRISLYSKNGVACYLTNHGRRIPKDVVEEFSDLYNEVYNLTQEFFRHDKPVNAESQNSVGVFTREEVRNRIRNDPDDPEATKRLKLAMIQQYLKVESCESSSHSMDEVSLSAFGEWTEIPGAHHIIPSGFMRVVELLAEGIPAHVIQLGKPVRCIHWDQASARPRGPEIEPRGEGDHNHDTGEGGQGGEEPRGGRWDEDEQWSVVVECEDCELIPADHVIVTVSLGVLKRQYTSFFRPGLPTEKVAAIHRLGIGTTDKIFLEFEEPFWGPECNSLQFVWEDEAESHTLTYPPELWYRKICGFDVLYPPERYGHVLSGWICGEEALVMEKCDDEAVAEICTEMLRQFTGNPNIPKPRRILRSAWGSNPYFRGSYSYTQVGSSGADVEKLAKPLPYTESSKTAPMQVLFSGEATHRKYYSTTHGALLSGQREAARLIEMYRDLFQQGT

Q: Which Ki (spermine oxidase (SMO) [1]) does the source give for c1ccc(CNCCCCNCc2ccccc2)cc1 [DBDB, N,N’-dibenzylbutane-1,4-diamine] here?
A: Its Ki is 320 ± 80 µM.

Q: For NCCCCNCCCN [spermidine], which Ki (spermine oxidase (SMO) [1]) is on record?
A: The Ki was 550 ± 20 µM.

Q: With NCCCNCCCCNCCCN [spermine] as the molecule, how does the Kd (spermine oxidase (SMO) [2]) read?
A: The Kd was 48 ± 8.2 µM.
